# Data as given in PubChem BioAssay (NCI).
#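 How tested: cells in 96-well plates exposed to compound for 48 hours at five concentrations. GI50 is the concentration that inhibits growth by half. Definition used: TGI = concentration required for complete inhibition of growth.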
# Legend:
# Assay in all cases: growth of human tumour cells (NCI), 48 h
# BT-549 breast = tested on: BT-549 breast
# HL-60(TB) leukemia = tested on: HL-60(TB) leukemia
# MALME-3M melanoma = tested on: MALME-3M melanoma
# IGROV1 ovarian = tested on: IGROV1 ovarian
# SF-268 CNS = tested on: SF-268 CNS
# SK-MEL-28 melanoma = tested on: SK-MEL-28 melanoma
# SK-MEL-2 melanoma = tested on: SK-MEL-2 melanoma
# SK-MEL-5 melanoma = tested on: SK-MEL-5 melanoma
# HT29 colon = tested on: HT29 colon
# SF-539 CNS = tested on: SF-539 CNS
# NCI/ADR-RES ovarian = tested on: NCI/ADR-RES ovarian
# HOP-62 NSCLC = tested on: HOP-62 NSCLC
# 786-0 renal = tested on: 786-0 renal
# U251 CNS = tested on: U251 CNS
# LOX IMVI melanoma = tested on: LOX IMVI melanoma
# KM12 colon = tested on: KM12 colon
# MOLT-4 leukemia = tested on: MOLT-4 leukemia
# ACHN renal = tested on: ACHN renal
# COLO 205 colon = tested on: COLO 205 colon
# K-562 leukemia = tested on: K-562 leukemia
# T-47D breast = tested on: T-47D breast
# NCI-H522 lung = tested on: NCI-H522 lung
# OVCAR-4 ovarian = tested on: OVCAR-4 ovarian
# SNB-19 CNS = tested on: SNB-19 CNS
# MDA-N = tested on: MDA-N
# SF-295 CNS = tested on: SF-295 CNS
# RXF 393 renal = tested on: RXF 393 renal
# MDA-MB-231 breast = tested on: MDA-MB-231 breast
# OVCAR-5 ovarian = tested on: OVCAR-5 ovarian
# PC-3 prostate = tested on: PC-3 prostate
# NCI-H23 lung = tested on: NCI-H23 lung
# MCF7 breast = tested on: MCF7 breast
# M14 melanoma = tested on: M14 melanoma
# HCC-2998 colon = tested on: HCC-2998 colon
# SK-OV-3 ovarian = tested on: SK-OV-3 ovarian
# CAKI-1 renal = tested on: CAKI-1 renal
# TK-10 renal = tested on: TK-10 renal
# NCI-H226 lung = tested on: NCI-H226 lung
# UACC-62 melanoma = tested on: UACC-62 melanoma
# UACC-257 melanoma = tested on: UACC-257 melanoma
# UO-31 renal = tested on: UO-31 renal
# OVCAR-8 ovarian = tested on: OVCAR-8 ovarian
# A549 NSCLC = tested on: A549 NSCLC
# EKVX NSCLC = tested on: EKVX NSCLC
# SN12C renal = tested on: SN12C renal
# HCT-116 colon = tested on: HCT-116 colon
# HOP-92 NSCLC = tested on: HOP-92 NSCLC
# HS 578T breast = tested on: HS 578T breast
# A498 renal = tested on: A498 renal
# HCT-15 colon = tested on: HCT-15 colon
# NCI-H460 lung = tested on: NCI-H460 lung
# SW-620 colon = tested on: SW-620 colon
# RPMI-8226 leukemia = tested on: RPMI-8226 leukemia
# DU-145 prostate = tested on: DU-145 prostate
# MDA-MB-435 = tested on: MDA-MB-435
# SNB-75 CNS = tested on: SNB-75 CNS
# OVCAR-3 ovarian = tested on: OVCAR-3 ovarian
# CCRF-CEM leukemia = tested on: CCRF-CEM leukemia
smiles,measurement,setting,value
COc1ccc(-c2cc(=O)c3cc(C)cnc3[nH]2)cc1,TGI,BT-549 breast,15 µM
same,GI50,HL-60(TB) leukemia,2.27 µM
same,TGI,HL-60(TB) leukemia,5.64 µM
same,TGI,MALME-3M melanoma,> 100 µM
same,TGI,IGROV1 ovarian,> 100 µM
same,TGI,SF-268 CNS,> 100 µM
same,TGI,SK-MEL-28 melanoma,> 100 µM
same,TGI,SK-MEL-2 melanoma,> 100 µM
same,GI50,SK-MEL-5 melanoma,3.73 µM
same,TGI,SK-MEL-5 melanoma,> 100 µM
same,TGI,HT29 colon,5.9 µM
same,TGI,SF-539 CNS,> 100 µM
same,TGI,NCI/ADR-RES ovarian,23.5 µM
same,TGI,HOP-62 NSCLC,> 100 µM
same,GI50,786-0 renal,5.1 µM
same,TGI,786-0 renal,> 100 µM
same,GI50,U251 CNS,4.2 µM
same,TGI,U251 CNS,> 100 µM
same,TGI,LOX IMVI melanoma,> 100 µM
same,TGI,KM12 colon,> 100 µM
same,TGI,MOLT-4 leukemia,40.9 µM
same,TGI,ACHN renal,> 100 µM
same,TGI,COLO 205 colon,23 µM
same,TGI,K-562 leukemia,8.29 µM
same,TGI,T-47D breast,> 100 µM
same,TGI,NCI-H522 lung,30.7 µM
same,TGI,OVCAR-4 ovarian,> 100 µM
same,TGI,SNB-19 CNS,> 100 µM
same,GI50,MDA-N,1.69 µM
same,TGI,MDA-N,4.98 µM
same,GI50,SF-295 CNS,5.29 µM
same,TGI,SF-295 CNS,> 100 µM
same,TGI,RXF 393 renal,> 100 µM
same,TGI,MDA-MB-231 breast,> 100 µM
same,TGI,OVCAR-5 ovarian,> 100 µM
same,GI50,PC-3 prostate,5.32 µM
same,TGI,PC-3 prostate,> 100 µM
same,TGI,NCI-H23 lung,> 100 µM
same,TGI,MCF7 breast,> 100 µM
same,TGI,M14 melanoma,45.1 µM
same,TGI,HCC-2998 colon,85 µM
same,TGI,SK-OV-3 ovarian,> 100 µM
same,TGI,CAKI-1 renal,> 100 µM
same,TGI,TK-10 renal,> 100 µM
same,TGI,NCI-H226 lung,51.7 µM
same,TGI,UACC-62 melanoma,> 100 µM
same,TGI,UACC-257 melanoma,> 100 µM
same,TGI,UO-31 renal,> 100 µM
same,TGI,OVCAR-8 ovarian,> 100 µM
same,TGI,A549 NSCLC,> 100 µM
same,TGI,EKVX NSCLC,> 100 µM
same,TGI,SN12C renal,> 100 µM
same,GI50,HCT-116 colon,4.15 µM
same,TGI,HCT-116 colon,> 100 µM
same,TGI,HOP-92 NSCLC,> 100 µM
same,TGI,HS 578T breast,> 100 µM
same,TGI,A498 renal,62.6 µM
same,TGI,HCT-15 colon,19.8 µM
same,GI50,NCI-H460 lung,4.08 µM
same,TGI,NCI-H460 lung,36.5 µM
same,TGI,SW-620 colon,> 100 µM
same,TGI,RPMI-8226 leukemia,45 µM
same,TGI,DU-145 prostate,> 100 µM
same,TGI,MDA-MB-435,5.53 µM
O=C1/C(=C/c2ccc(O)c(CN3CCCCC3)c2)CCC/C1=C\c1ccc(O)c(CN2CCCCC2)c1,TGI,BT-549 breast,31.3 µM
same,TGI,HL-60(TB) leukemia,11.5 µM
same,TGI,MALME-3M melanoma,28.7 µM
same,TGI,IGROV1 ovarian,29.4 µM
same,TGI,SF-268 CNS,20.8 µM
same,TGI,SK-MEL-28 melanoma,31.3 µM
same,TGI,SK-MEL-2 melanoma,50.6 µM
same,TGI,SK-MEL-5 melanoma,27.1 µM
same,TGI,HT29 colon,3.7 µM
same,TGI,NCI/ADR-RES ovarian,9.82 µM
same,TGI,HOP-62 NSCLC,26.3 µM
same,TGI,786-0 renal,17.5 µM
same,TGI,U251 CNS,20.5 µM
same,TGI,LOX IMVI melanoma,25.1 µM
same,TGI,KM12 colon,14.8 µM
same,TGI,MOLT-4 leukemia,27 µM
same,TGI,ACHN renal,19.5 µM
same,TGI,SNB-75 CNS,12.4 µM
same,TGI,COLO 205 colon,10.4 µM
same,TGI,K-562 leukemia,42.3 µM
same,TGI,T-47D breast,35.8 µM
same,TGI,OVCAR-4 ovarian,33.2 µM
same,TGI,SNB-19 CNS,17.7 µM
same,TGI,MDA-N,20.6 µM
same,TGI,SF-295 CNS,16.3 µM
same,TGI,RXF 393 renal,15.5 µM
same,TGI,MDA-MB-231 breast,17.4 µM
same,TGI,OVCAR-5 ovarian,> 100 µM
same,TGI,PC-3 prostate,44.6 µM
same,TGI,NCI-H23 lung,20.2 µM
same,TGI,MCF7 breast,15.5 µM
same,TGI,M14 melanoma,44.5 µM
same,TGI,OVCAR-3 ovarian,> 100 µM
same,TGI,HCC-2998 colon,20.6 µM
same,TGI,SK-OV-3 ovarian,22.4 µM
same,TGI,CAKI-1 renal,34.5 µM
same,TGI,TK-10 renal,21.1 µM
same,TGI,NCI-H226 lung,48.2 µM
same,TGI,UACC-62 melanoma,38.2 µM
same,TGI,UACC-257 melanoma,23.9 µM
same,TGI,UO-31 renal,22.5 µM
same,TGI,OVCAR-8 ovarian,29.8 µM
same,TGI,CCRF-CEM leukemia,17.7 µM
same,TGI,A549 NSCLC,53.5 µM
same,TGI,EKVX NSCLC,25.2 µM
same,TGI,SN12C renal,59 µM
same,TGI,HCT-116 colon,14.7 µM
same,TGI,HOP-92 NSCLC,12.3 µM
same,TGI,HS 578T breast,83.8 µM
same,TGI,A498 renal,28.9 µM
same,TGI,HCT-15 colon,29.5 µM
same,TGI,NCI-H460 lung,13.6 µM
same,TGI,SW-620 colon,29.1 µM
same,TGI,RPMI-8226 leukemia,35.8 µM
same,TGI,DU-145 prostate,17.6 µM
same,TGI,MDA-MB-435,18.2 µM
O=C1/C(=N\n2c(-c3ccncc3)n[nH]c2=S)c2cc(Cl)ccc2N1CN1CCCCC1,TGI,BT-549 breast,> 100 µM
same,TGI,HL-60(TB) leukemia,47 µM
same,TGI,MALME-3M melanoma,> 100 µM
same,TGI,IGROV1 ovarian,75 µM
same,TGI,SF-268 CNS,> 100 µM
same,TGI,SK-MEL-28 melanoma,> 100 µM
same,TGI,SK-MEL-2 melanoma,59.2 µM
same,TGI,SK-MEL-5 melanoma,> 100 µM
same,TGI,HT29 colon,> 100 µM
same,TGI,SF-539 CNS,> 100 µM
same,TGI,NCI/ADR-RES ovarian,> 100 µM
same,TGI,HOP-62 NSCLC,> 100 µM
same,TGI,786-0 renal,> 100 µM
same,TGI,U251 CNS,> 100 µM
same,TGI,LOX IMVI melanoma,40.2 µM
same,TGI,KM12 colon,> 100 µM
same,TGI,MOLT-4 leukemia,50.3 µM
same,TGI,ACHN renal,> 100 µM
same,TGI,SNB-75 CNS,> 100 µM
same,TGI,COLO 205 colon,> 100 µM
same,TGI,K-562 leukemia,> 100 µM
same,TGI,T-47D breast,> 100 µM
same,TGI,NCI-H522 lung,33.2 µM
same,TGI,OVCAR-4 ovarian,> 100 µM
same,TGI,SNB-19 CNS,> 100 µM
same,TGI,MDA-N,> 100 µM
same,TGI,SF-295 CNS,> 100 µM
same,TGI,RXF 393 renal,38.3 µM
same,TGI,MDA-MB-231 breast,> 100 µM
same,TGI,OVCAR-5 ovarian,> 100 µM
same,TGI,PC-3 prostate,> 100 µM
same,TGI,NCI-H23 lung,> 100 µM
same,TGI,MCF7 breast,> 100 µM
same,TGI,M14 melanoma,> 100 µM
same,TGI,OVCAR-3 ovarian,> 100 µM
same,TGI,SK-OV-3 ovarian,> 100 µM
same,TGI,CAKI-1 renal,> 100 µM
same,TGI,TK-10 renal,> 100 µM
same,TGI,NCI-H226 lung,> 100 µM
same,TGI,UACC-62 melanoma,> 100 µM
same,TGI,UACC-257 melanoma,76.2 µM
same,TGI,UO-31 renal,> 100 µM
same,TGI,OVCAR-8 ovarian,> 100 µM
same,TGI,CCRF-CEM leukemia,81.1 µM
same,TGI,A549 NSCLC,> 100 µM
same,TGI,EKVX NSCLC,> 100 µM
same,TGI,SN12C renal,> 100 µM
same,TGI,HCT-116 colon,> 100 µM
same,TGI,HOP-92 NSCLC,> 100 µM
same,TGI,HS 578T breast,93.2 µM
same,TGI,A498 renal,> 100 µM
same,TGI,HCT-15 colon,> 100 µM
same,TGI,NCI-H460 lung,> 100 µM
same,TGI,SW-620 colon,> 100 µM
same,TGI,DU-145 prostate,> 100 µM
same,TGI,MDA-MB-435,> 100 µM
